We go through three molecules from patent US20260174692A1, “AEROSOL COMPOSITION” (UPyTher B.V., priority 2023, published 2026).

For data set [1] the following is noted: cited from earlier work.
Data set [2] is described as follows: In vitro release of TLR-agonists from hydrogel. The settings on record: 6 and 10 wt. % hydrogel formulations; ammonium carbonate buffer. It is filed as physicochemical. How it is done: The TLR-agonist resiquimod (synonym R848) was loaded from a stock solution (50 mM in DMSO) to 1.27 mM in the hydrogel. The TLR-agonist telratolimod (synonym MEDI9197) was loaded from a stock solution (10 mM in DMSO) to 0.5 mM in the hydrogel.
The drug loaded solution (100 μL) was transferred to a Millicell insert, which was placed in a 24-wells plate filled with PBS pH 7.4 (700 μL). At set time points the PBS was refreshed and the removed PBS was analyzed for R848 content UV absorbance at 320 nm. For MEDI9197, PBS was substituted for a volatile ammonium carbonate buffer and a HPLC-MS method was used. Release experiments were performed with n=3.

Data set [3] in a line: In vitro release of ipilimumab from hydrogel. Type of data set: physicochemical. As to conditions: 10 wt % UPy-PEG10k hydrogel; PBS pH 7.4. Here is the method: The monoclonal antibody ipilimumab was loaded from a stock solution ([…] in PBS) to 3 μg/μl in the hydrogel. The drug loaded solution (50 μL) was transferred to 96-wells filter plate filled with PBS pH 7.4 (250 μL). At set time points the PBS was refreshed and the removed PBS was analyzed for antibody content with a Fortebio Octet interferometer.

For the molecule `O=C1[O][Pt]2([NH][C@@H]3CCCC[C@H]3[NH]2)[O]C1=O` [oxaliplatin], the “Cmax, ePIPAC” value in data set [1] (administered by ePIPAC) was 2670 to 3280 ng/mL. Further, in data set [1] (after systemic chemotherapy), the “AUCmax, systemic” value is 51400 to 118000 ng·h/mL and the “Cmax, systemic” value was 1610 to 1920 ng/mL.
In the case of `CCCCCCCCCCCCCCCCCC(=O)NCCCCOn1c(CCCC)nc2c(N)nc3ccccc3c21` [MEDI9197, telratolimod], the “release rate from hydrogel” value in data set [2] was “released slower than MMC”.
With “ipilimumab: monoclonal antibody, checkpoint inhibitor (CTLA-4), loaded to 3 μg/μl in the hydrogel”, in data set [3], the “duration of antibody release” value is reported as “released for multiple weeks”.
